{
  "source": "patent US12552797B2",
  "about": "“Process for making (3-[cyclopropylethoxy(difluoro)methyl]-6-6[5-fluoro-6-(2,2,2-trifluoroethoxy-3-pyridyl]- [1,2,4]triazolo[4,3-a]pyrazine” (Praxis Precision Medicines, Inc., priority 2019, dated 2026)",
  "assay_type_in_all_cases": "physicochemical",
  "key": {"[1]": {"assay": "Solubility of Compound 1 in solution formulation vehicles (visual)", "conditions": "for solubility: organic solvent or mixture, thermodynamic from solid, read-out: maximum solubility (visually determined)", "method": "2400 μL PEG 400 was added to a 8 mL glass vial together with 3 mg of Compound 1 and mixed together by Vortex and sonicated for 5 min. Then 600 μL Cremophor RH40 was added to the container, mixed together by Vortex and sonicated for 5 min. Then 3000 μL water was added to the container, mixed together by Vortex and sonicated for 5 min.\nAbout 15 mg compound were weighted to a 8 mL glass container and then 2 mL Prototype 2a was added to the glass container. The contents were mixed together by vortexing and sonication for 5 min.\nAbout 15 mg compound was weighed to an 8 mL glass containers and then 2 mL of Prototype 2b was added to the container and mixed together by vortex and sonicated for 5 min. […] in Prototype 2b with 7.5 mg/mL was not clear. Then another 140 μL of Prototype 2b vehicle was added to the container and mixed together by vortex and sonicated for 5 min.\n600 μL PEG 400 was added to a 4 mL glass vial together with 3 mg of Compound 1 and mixed together by Vortex and sonicated for 5 min. Then 150 μL Cremophor RH40 was added to the container and mixed together by Vortex and sonicated for 5 min. Then 750 μL water was added to the container and mixed together by vortexing and sonicated for 5 min.\n(§1) Cremophor RH40, Capmul MCM Co, Triethylcitrate and Ethanol were added together on a weight basis to a glass container and mixed together to form a solution mixture. […] Additional Compound 1 was added with vortexing and sonication until Compound 1 was no longer soluble. The resulting maximum solubility was visually determined to be between 25 and 50 mg/mL.\nas §1, with “Capryol 90, Labrasol” for “Cremophor RH40, Capmul MCM Co, Triethylcitrate”, “Transcutol HP” for “Ethanol”, “volumetric” for “weight”, “60” for “25”, “80” for “50”"}, "[2]": {"assay": "Kinetic solubility of amorphous solid dispersions (ASD) in FaSSIF", "method": "Amorphous solid dispersion including Compound 1 was prepared with a mixture of Compound 1 and polymer. Nine ASD formulations were prepared using for screening 9 different polymers as the solid dispersant (PVPK30, PVPVA64, Soluplus, HPMC E5, HPMC ASMG, HPMC ASMF, HPMC ASHG, Eudragit EPO, Eudragit L100). About 10 mg of Compound 1 and 40 mg of corresponding polymer were weighed into 40-mL glass vials, and dissolved in 1 mL of MeOH/DCM (1:1, v/v) to prepare stock solution. […] The product after evaporation was dried under vacuum at 30° C. overnight and further characterized by appearance, PLM, XRPD and mDSC.\nThe nine ASD formulations were tested for kinetic solubility in FaSSIF at the concentration of 2 mg/mL. The experiment was run at 37° C. with the rate of 450 rpm. 0.5 mL of the mixture was taken out at each time point and centrifuged before running UPLC (a shortened runtime version of the described HPLC method was used to determine the Compound 1 levels)."}, "[3]": {"assay": "Stability of suspension formulations in methylcellulose/Poloxamer 188 vehicles (appearance, concentration, purity, PSD)", "design": "key: *: homogeneous suspension initially, sedimentation occurred over time and returned to homogeneous after gentle agitation for ~1 min; #: viscous homogeneous suspension initially, sedimentation occurred over time and returned to homogeneous after gentle agitation for ~2 mins", "conditions": "96 h at RT", "method": "As shown in Tables 9-11, various suspension formulations were tested for stability under different conditions.\nTo prepare a suspension weigh required amount of milled Compound 1 into a glass container and add corresponding volume of the vehicle. Thoroughly disperse the compound into a homogenous suspension using an overhead mixer at the final concentration target. Concentrations were prepared at 0.1 mg/mL and at 10 mg/mL. The suspension products were physically evaluated on visual appearance, concentration, purity and PSD.\nThe vehicles are prepared by dissolving 0.5% by weight of either 400 cP methylcellulose or 4000 cP methylcellulose and 0.2% Poloxamer 188. For the preserved suspensions, additionally 1.0% by volume of paraben preservative solution was dissolved into vehicle using an overhead mixer. The paraben preservative solution was prepared by dissolving 0.10 g methyl paraben, 0.025 g propylparaben in 9.875 g propylene glycol dissolved by mixing with a stir bar at room temperature for 1 hour."}, "[4]": {"assay": "XRPD, NMR and LC-MS of Compound 1 before and after jet milling", "method": "X-ray powder diffraction (XRPD) data were collected using a Bruker D8 Advance powder diffractometer. The samples were irradiated with copper K-alpha X-rays (λ=1.54179 Å) with the generator operating at 40 kV/40 mA. The samples were scanned in continuous mode from 3° to 40° (2 θ) with a sample rotation speed of 15 rpm and a scanning rate of 10°/min.\nProton NMR (^1H-NMR), Florine NMR (^19F-NMR) and LC-MS analyses were also carried out on Compound 1 before jet milling and after jet milling."}},
  "note": "Like-named read-outs stand apart in the source and are kept apart here.",
  "data": [
    {"smiles": "CCOC(F)(F)c1nnc2cnc(-c3cnc(OCC(F)(F)F)c(F)c3)cn12", "note": "[Compound 1, 3-(ethoxydifluoromethyl)-6-(5-fluoro-6-(2,2,2-trifluoroethoxy)pyridin-3-yl)-[1,2,4]triazolo[4,3-a]pyrazine]", "values": [
      {"measurement": "dissolution in vehicle (visual)", "setting": "[1]; Prototype 1: 40% PEG 400/10% Cremophor RH40/50% Water, 0.5 mg/mL", "result": "dissolved completely"},
      {"measurement": "dissolution in vehicle (visual)", "setting": "[1]; Prototype 2a vehicle, 7.5 mg/mL", "result": "clear solution"},
      {"measurement": "dissolution in vehicle (visual)", "setting": "[1]; Prototype 2b vehicle, 7.5 mg/mL", "result": "not clear"},
      {"measurement": "dissolution in vehicle (visual)", "setting": "[1]; Prototype 3, 2 mg/mL", "result": "dissolved completely"},
      {"measurement": "solubility", "setting": "[1]; Prototype 4 solution formulation vehicle, Prototype 4: 36% Cremophor RH40+45% Capmul MCM C8+9% Triethylcitrate+10% Ethanol", "result": "25000 to 50000", "unit": "µg/mL"},
      {"measurement": "solubility", "setting": "[1]; Prototype 5 solution formulation vehicle, Prototype 5: 40 Capryol 90+20% Labrasol+40% Transcutol HP", "result": "60000 to 80000", "unit": "µg/mL"},
      {"measurement": "solubility kinetic at 15 min", "setting": "[2]; FaSSIF, thermodynamic from solid, 2 mg/mL, 37° C., 450 rpm, 15 min", "result": 5.7, "unit": "µg/mL"},
      {"measurement": "solubility kinetic at 30 min", "setting": "[2]; FaSSIF, thermodynamic from solid, 2 mg/mL, 37° C., 450 rpm, 30 min", "result": 8.1, "unit": "µg/mL"},
      {"measurement": "solubility kinetic at 60 min", "setting": "[2]; FaSSIF, thermodynamic from solid, 2 mg/mL, 37° C., 450 rpm, 60 min", "result": 7.1, "unit": "µg/mL"},
      {"measurement": "solubility kinetic at 120 min", "setting": "[2]; FaSSIF, thermodynamic from solid, 2 mg/mL, 37° C., 450 rpm, 120 min", "result": 11.6, "unit": "µg/mL"},
      {"measurement": "Final pH", "setting": "[2]; kinetic solubility test in FaSSIF", "result": 6.54},
      {"measurement": "Visual Appearance", "setting": "[3]; 0.5% 400 cP MC, 0.2% Poloxamer 188, 0.1 mg/mL", "result": "*"},
      {"measurement": "Visual Appearance", "setting": "[3]; 0.5% 400 cP MC, 0.2% Poloxamer 188, 10 mg/mL", "result": "*"},
      {"measurement": "Visual Appearance", "setting": "[3]; 0.5% 400 cP MC, 0.2% Poloxamer 188 and 1.0% of paraben preservative solution, 0.1 mg/mL", "result": "*"},
      {"measurement": "Visual Appearance", "setting": "[3]; 0.5% 400 cP MC, 0.2% Poloxamer 188 and 1.0% of paraben preservative solution, 10 mg/mL", "result": "*"},
      {"measurement": "Visual Appearance", "setting": "[3]; 0.5% 4000 cP MC, 0.2% Poloxamer 188, 0.1 mg/mL", "result": "#"},
      {"measurement": "Visual Appearance", "setting": "[3]; 0.5% 4000 cP MC, 0.2% Poloxamer 188, 10 mg/mL", "result": "#"},
      {"measurement": "Visual Appearance", "setting": "[3]; 0.5% 4000 cP MC, 0.2% Poloxamer 188 and 1.0% of paraben preservative solution, 0.1 mg/mL", "result": "#"},
      {"measurement": "Visual Appearance", "setting": "[3]; 0.5% 4000 cP MC, 0.2% Poloxamer 188 and 1.0% of paraben preservative solution, 10 mg/mL", "result": "#"},
      {"measurement": "physical form change (XRPD)", "setting": "[4]; after jet-milling", "result": "no physical form change"},
      {"measurement": "chemical or structural change (NMR, LC-MS)", "setting": "[4]; due to jet milling", "result": "no observed chemical or structural change"}
    ]}
  ]
}
